In assay [1] the target is Histamine H1 receptor (Homo sapiens, UniProt P35367). The assay is described as follows: biochemical. In kind it is cell-based, HEK293.
For assay [2], the target named is Histamine H4 receptor (Homo sapiens, UniProt Q9H3N8). The assay is described as follows: Displacement of [3H]histamine from human histamine H4 receptor expressed in HEK293 cells after 1 to 1.5 hrs by scintillation counting. In kind it is cell-based. Background: In a radioligand displacement assay an active substance lowers the binding of a labelled ligand.
The target in assay [3] is Histamine H3 receptor (Homo sapiens, UniProt Q9Y5N1). The assay is described as follows: Displacement of [3H]N-alpha-methylhistamine from human histamine H3 receptor expressed in HEK293 cells after 1 to 1.5 hrs by scintillation counting. In kind it is cell-based.

Molecules are shown by their SMILES.

Histamine H1 receptor, sequence (P35367 whole entry): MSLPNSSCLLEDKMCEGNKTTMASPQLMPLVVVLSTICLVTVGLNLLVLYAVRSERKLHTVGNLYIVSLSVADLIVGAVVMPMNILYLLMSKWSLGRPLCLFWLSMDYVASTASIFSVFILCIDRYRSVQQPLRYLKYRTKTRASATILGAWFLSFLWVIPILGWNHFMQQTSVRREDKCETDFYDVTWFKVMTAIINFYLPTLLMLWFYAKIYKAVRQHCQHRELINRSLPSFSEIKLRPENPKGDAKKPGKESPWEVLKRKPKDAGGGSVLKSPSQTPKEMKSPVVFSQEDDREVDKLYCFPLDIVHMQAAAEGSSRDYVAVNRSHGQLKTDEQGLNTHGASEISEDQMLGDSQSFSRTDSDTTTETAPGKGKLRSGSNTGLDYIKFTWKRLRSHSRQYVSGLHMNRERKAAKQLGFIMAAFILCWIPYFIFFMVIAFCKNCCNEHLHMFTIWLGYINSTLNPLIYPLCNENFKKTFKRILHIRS
Histamine H3 receptor, sequence (Q9Y5N1 whole entry): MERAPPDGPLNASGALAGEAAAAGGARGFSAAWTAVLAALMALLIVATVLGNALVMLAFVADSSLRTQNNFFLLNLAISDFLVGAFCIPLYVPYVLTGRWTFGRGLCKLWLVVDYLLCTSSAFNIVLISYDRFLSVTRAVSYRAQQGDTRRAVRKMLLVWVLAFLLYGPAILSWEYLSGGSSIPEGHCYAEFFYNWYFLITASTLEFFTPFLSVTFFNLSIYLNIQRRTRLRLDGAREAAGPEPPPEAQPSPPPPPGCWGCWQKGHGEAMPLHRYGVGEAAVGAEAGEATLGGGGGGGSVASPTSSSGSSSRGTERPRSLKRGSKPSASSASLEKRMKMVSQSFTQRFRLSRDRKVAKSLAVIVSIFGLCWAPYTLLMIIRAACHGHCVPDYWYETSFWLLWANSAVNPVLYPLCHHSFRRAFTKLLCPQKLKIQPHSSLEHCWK
Histamine H4 receptor, sequence (Q9H3N8 whole entry): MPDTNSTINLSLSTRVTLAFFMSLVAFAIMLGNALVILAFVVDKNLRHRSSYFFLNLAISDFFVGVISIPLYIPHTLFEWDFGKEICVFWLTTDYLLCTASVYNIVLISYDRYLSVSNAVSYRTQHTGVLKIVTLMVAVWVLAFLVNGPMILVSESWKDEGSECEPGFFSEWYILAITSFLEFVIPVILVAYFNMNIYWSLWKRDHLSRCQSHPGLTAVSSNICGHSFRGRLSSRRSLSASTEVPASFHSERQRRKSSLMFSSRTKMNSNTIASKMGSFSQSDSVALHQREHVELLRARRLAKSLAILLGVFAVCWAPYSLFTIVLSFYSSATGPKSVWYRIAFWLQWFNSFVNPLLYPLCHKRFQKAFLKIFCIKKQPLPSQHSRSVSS

For the molecule `C1CCN(c2nc(N3CCCC3)nc(N3CCNCC3)n2)C1`, the Ki in assay [1] (read-out: pKi (converted)) is 1910 nM.
On to `C=CCn1c(=N)n(CC(=O)c2ccccc2)c2ccccc21`, for which the Ki in assay [1] (read-out: pKi (converted)) was 10700 nM.
As for `c1ccc(Cc2ccccc2OC2CCNCC2)cc1`, in assay [1] (read-out: Ki), the Ki is 6 nM.
On to `CN1CCN(c2nc(N3CCCC3)c3cnn(C)c3n2)CC1`, for which the Ki in assay [1] (read-out: Ki) worked out at 62 nM; in assay [2], 2900 nM.
For `NC1=NC(c2ccccc2)n2c(nc3ccccc32)N1` (stereo not given), the Ki in assay [1] (read-out: pKi (converted)) is 427 nM.
For `CN(C)CCSc1nc2ccccc2c2nnnn12`, the Ki in assay [1] (read-out: pKi (converted)) is 708 nM.
The same measure, in the same setting: in the case of `OCCN1CCN(c2ncnc3sccc23)CC1` it was 708 nM; in that of `CNCC(O)CN1c2ccccc2C2CCCCC21` (stereo not given), 2290 nM.
As for `c1ccc2c(c1)nc1n(CCN3CCCCC3)cnn21`, the values for the Ki in assay [1] (read-out: pKi (converted)) and in assay [3] were 2630 nM and 600 nM, respectively.
The corresponding values for `c1ccc2c(N3CCN(C4CCCC4)CC3)ncnc2c1` are 3240 nM and 100 nM.
As to `c1ccc2c(c1)n(CCN1CCCCC1)c1ncnn21`, the Ki in assay [1] (read-out: pKi (converted)) was 4170 nM.
As to `CC(C)NCc1ccc(-c2ccccc2)o1`, the Ki in assay [1] (read-out: pKi (converted)) was 4570 nM.
In the case of `OC(CNC1CC1)Cn1c2ccccc2c2ccccc21` (stereo not given), the Ki in assay [1] (read-out: pKi (converted)) was 6310 nM; in assay [2], 2400 nM.
For the molecule `NCCc1ccccc1Oc1ccccc1`, the Ki in assay [1] (read-out: pKi (converted)) is 11000 nM.
For `CNCCCOc1cccc2ccccc12`, the Ki in assay [1] (read-out: pKi (converted)) is 794 nM.
Take `c1cnc2c(c1)cc([C@@H]1CCCO1)n2CCN1CCCCC1`: the Ki in assay [1] (read-out: pKi (converted)) is 1780 nM.

Source of the values: ChEMBL document CHEMBL1921782, “Crystal structure-based virtual screening for fragment-like ligands of the human histamine H(1) receptor” (J Med Chem, 2011).
